Columns and labels:
Format in all cases: cell-based
[1] = system: HeLa-C3 cells; assay: Cell morphology changes of HeLa-C3 cells during compound treatment (FIG. 2)
Experimental: Refereeing to FIG. 2, Cell morphology changes during the course of compound treatment. HeLa-C3 cells were treated with compounds of 2 at 25 μM, an anticancer drug, pacilitaxel at 500 nM (serving as a positive control), and a control without any drug for 24, 48, and 72 h. Various cell morphologies were recorded at the indicated time points.

[2] = system: HeLa cells; assay: MTT assay, cell growth inhibition on HeLa cells; conditions: 72 h
Experimental: The measurement of the IC50 was conducted on the isolated compounds using MTT assay. MIT powder was dissolved in PBS at a concentration of 5 mg/mL. For MTT assay, 10 μL of MTT solution was added into each well of a 96-well plate. After 2 h incubation at 37° C., 100 μL 10% SDS solution with 0.01 M HCl was added to dissolve the purple crystals. After 24 h incubation, the optical density (OD) readings at 595 nm were measured using a plate reader. Firstly, 2,500 HeLa cells suspended in 100 μL MEM medium were seeded respectively in a 96-well plate. After 24 h incubation, fresh medium contains various concentrations of each compound were added into the 96-well plate and changed the old medium. The concentrations applied except compound 1 which was from 200 μM to 3.125 μM were ranged from 100 μM to 1.5625 μM, which was achieved by doing two-fold dilutions for 6 times. The OD values of the control group at 0 h and 72 h together with the compound treated groups at 72 h from the MTT assay were measured using a plate reader. IC50 is the concentration of a compound inhibiting 50% of the cell growth.

[3] = system: HeLa-C3 cells; assay: Apoptosis-inducing effect in HeLa-C3 cells (caspase-3 FRET biosensor, YFP/CFP emission ratio); conditions: for Apoptotic effect at 10 μM / Apoptotic effect at 25 μM / Apoptotic effect at 50 μM / Apoptotic effect at 100 μM: 72 h, HeLa-C3 cells, YFP/CFP emission ratio
Experimental: The bioassay method was described in our previous paper with some modifications. All the testing samples were dissolved in DMSO to make stock solutions. The concentration of each stock was at least 1000 times higher than the working concentration. HeLa-C3 cells, which allows detection of apoptotic cell death involving caspase activation, were cultured in minimum essential medium (MEM) containing 10% fetal bovine serum, 100 U/mL penicillin, […] streptomycin, in a 5% CO2 humidity incubator at 37° C. The sample well for apoptotic activity testing was prepared by seeding a well on a 96-well plate with 7500 HeLa-C3 cells suspended in 100 μL culture medium. After 12-16 h incubation, the old medium was removed and 100 μL freshly prepared culture medium containing the testing sample at a certain working concentration was added to both the sample well and the corresponding background well. Culture medium containing 0.1% DMSO was the negative control while 500 nM paclitaxel was the positive control. After that, the plate was read repeatedly by a Perkin-Elmer Victor reader with excitation wavelength at 440±10 nm and emission wavelength at 486±8 nm for CFP (cyan fluorescent protein) and 535±8 nm for YFP (yellow fluorescent protein) at indicated time points. The data acquisition duration was up to 72 h. The YFP/CFP emission ratio was then calculated. The background fluorescence was measured from the wells containing only medium. After subtracting the background fluorescence from the recorded signal, net YFP and CFP readings were obtained. In this paper, Y/C emission ratio is used to represent the effect of FRET, which is equal to the net YFP reading divided by the net CFP reading from the same well. If YFP/CFP emission ratio was reduced below 3, the testing sample was considered as a good apoptotic inducer at that concentration. All samples were tested in triplicate. The whole experiment was repeated for three times.
The biological activity of these new compounds was evaluated for apoptosis inducing effects using genetically engineered HeLa-C3 cells that can produce a fluorescent biosensor capable of detecting caspase-3 activation. These cells emit a green light under normal growth conditions and change to a blue light when caspase-3 is activated during apoptosis to cleave the sensor protein inside the cells. This color change allows one to use a fluorescent plate reader to directly detect the activation level of caspase-3 in HeLa-C3 cells during the course of the compound treatment in a noninvasive way. Based on our previous test results, the emission ratio of YFP (yellow fluorescent protein)/CFP (cyanfluorescent proteins) is usually between 6 and 8 in normal cells, and this ratio will decrease to a value below 3 if a compound can activate caspase-3 and kill cancer cells. Therefore, any compound that can reduce the YFP/CFP emission ratio to a value below 3 is considered positive in activating apoptosis.

| IC50 [2] | IC50 ([2]; Homo sapiens, HeLa) | SMILES | Cell morphology ([1]; 500 nM (positive control), 24, 48 and 72 h) | Apoptotic effect at 10 μM [3] | Apoptotic effect at 25 μM [3] | Apoptotic effect at 50 μM [3] | Apoptotic effect at 100 μM [3] | Cell morphology ([1]; 25 μM, 24, 48 and 72 h) | caspase-3 activation in HeLa-C3 cells ([3]; within 72 h at 25 μM) |
| --- | --- | --- | --- | --- | --- | --- | --- | --- | --- |
| – | – | CC(=O)O[C@H]1C(=O)[C@@]2(C)[C@H]([C@H](OC(=O)c3ccccc3)[C@]3(O)C[C@H](OC(=O)[C@H](O)[C@@H](NC(=O)c4ccccc4)c4ccccc4)C(C)=C1C3(C)C)[C@]1(OC(C)=O)CO[C@@H]1C[C@@H]2O [paclitaxel, reference compound] | shrinkage and detached morphology | – | – | – | – | – | – |
| 95.6 ± 5.5 µM | – | COc1c(O)c(CC=C(C)C)cc2c1Oc1cc(O)c(CC=C(C)C)c(O)c1C(=O)O2 [Compound 1, Paucinervin A] | – | − (“−” means the YFP/CFP emission ratio of compound treated HeLa-C3 cells was above 3 at 72 h) | − (“−” means the YFP/CFP emission ratio of compound treated HeLa-C3 cells was above 3 at 72 h) | − (“−” means the YFP/CFP emission ratio of compound treated HeLa-C3 cells was above 3 at 72 h) | + (“+” means the YFP/CFP emission ratio of compound treated HeLa-C3 cells was below 3 at 72 h) | – | – |
| 9.5 ± 0.2 µM | < 10 µM | COC(=O)c1c(O)cc(O)cc1Oc1c(O)c(OC)cc(CC=C(C)C)c1OC [Compound 2, Paucinervin B] | – | − (“−” means the YFP/CFP emission ratio of compound treated HeLa-C3 cells was above 3 at 72 h) | + (“+” means the YFP/CFP emission ratio of compound treated HeLa-C3 cells was below 3 at 72 h) | + (“+” means the YFP/CFP emission ratio of compound treated HeLa-C3 cells was below 3 at 72 h) | + (“+” means the YFP/CFP emission ratio of compound treated HeLa-C3 cells was below 3 at 72 h) | shrinkage and detached morphology | could activate caspase-3 |

From patent US20110301236A1, “HeLa-C3 Apoptosis Inducer from Garcinia paucinervis” (priority 2010, published 2011)
